According to ChEMBL document CHEMBL4041472, “Curacin E from the Brittle Star Ophiocoma scolopendrina” (J Nat Prod, 2016):
Calls of active or inactive are those of the source. No cut-off for these calls is given here.

Key:
P388 = assay: Cytotoxicity against mouse P388 cells assessed as reduction in cell viability at >= 20 nM after 96 hrs by MTT assay; format: functional, cell-based
[1] = target: T1, NAD-dependent protein deacetylase sirtuin-1 (Homo sapiens) (UniProt Q96EB6); assay: Inhibition of human SIRT1 expressed in Escherichia coli BL21(DE3) up to 50 uM using Ac-RHKK(Ac)-MCA as substrate after 60 mins in presence of NAD by fluorescence assay
T1 sequence (whole entry): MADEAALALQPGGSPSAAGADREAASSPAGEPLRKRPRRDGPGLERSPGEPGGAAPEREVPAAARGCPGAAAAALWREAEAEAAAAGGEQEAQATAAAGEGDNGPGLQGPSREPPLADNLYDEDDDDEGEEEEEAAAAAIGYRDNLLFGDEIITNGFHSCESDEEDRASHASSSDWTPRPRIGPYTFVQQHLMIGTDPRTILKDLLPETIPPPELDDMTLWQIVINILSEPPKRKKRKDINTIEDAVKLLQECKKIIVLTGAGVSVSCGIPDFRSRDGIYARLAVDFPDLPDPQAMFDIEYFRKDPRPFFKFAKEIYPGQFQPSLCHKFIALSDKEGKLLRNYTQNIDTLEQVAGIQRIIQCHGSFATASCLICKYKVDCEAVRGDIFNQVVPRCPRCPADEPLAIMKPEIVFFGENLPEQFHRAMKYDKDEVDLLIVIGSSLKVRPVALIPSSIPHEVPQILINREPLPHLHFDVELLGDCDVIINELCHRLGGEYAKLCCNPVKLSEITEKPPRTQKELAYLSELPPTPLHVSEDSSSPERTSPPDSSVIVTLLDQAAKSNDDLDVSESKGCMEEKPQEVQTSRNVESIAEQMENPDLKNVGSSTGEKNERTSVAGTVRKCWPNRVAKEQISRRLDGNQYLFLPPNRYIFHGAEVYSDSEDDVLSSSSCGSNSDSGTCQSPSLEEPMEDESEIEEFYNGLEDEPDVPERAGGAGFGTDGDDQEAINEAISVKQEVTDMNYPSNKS

[2] = target: Histone deacetylase 1 (Homo sapiens) (UniProt Q13547); assay: Inhibition of human FLAG-tagged HDAC1 expressed in human 293T cells up to 50 uM using Ac-KGLGK(Ac)-MCA as substrate after 30 mins by fluorescence assay
[3] = target: T2, Protein deacetylase HDAC6 (Mus musculus) (UniProt Q9Z2V5); assay: Inhibition of mouse FLAG-tagged HDAC6 expressed in human 293T cells coexpressing HDA2 up to 50 uM using Ac-KGLGK(Ac)-MCA as substrate after 30 mins by fluorescence assay; format: cell-based
T2 sequence (whole entry): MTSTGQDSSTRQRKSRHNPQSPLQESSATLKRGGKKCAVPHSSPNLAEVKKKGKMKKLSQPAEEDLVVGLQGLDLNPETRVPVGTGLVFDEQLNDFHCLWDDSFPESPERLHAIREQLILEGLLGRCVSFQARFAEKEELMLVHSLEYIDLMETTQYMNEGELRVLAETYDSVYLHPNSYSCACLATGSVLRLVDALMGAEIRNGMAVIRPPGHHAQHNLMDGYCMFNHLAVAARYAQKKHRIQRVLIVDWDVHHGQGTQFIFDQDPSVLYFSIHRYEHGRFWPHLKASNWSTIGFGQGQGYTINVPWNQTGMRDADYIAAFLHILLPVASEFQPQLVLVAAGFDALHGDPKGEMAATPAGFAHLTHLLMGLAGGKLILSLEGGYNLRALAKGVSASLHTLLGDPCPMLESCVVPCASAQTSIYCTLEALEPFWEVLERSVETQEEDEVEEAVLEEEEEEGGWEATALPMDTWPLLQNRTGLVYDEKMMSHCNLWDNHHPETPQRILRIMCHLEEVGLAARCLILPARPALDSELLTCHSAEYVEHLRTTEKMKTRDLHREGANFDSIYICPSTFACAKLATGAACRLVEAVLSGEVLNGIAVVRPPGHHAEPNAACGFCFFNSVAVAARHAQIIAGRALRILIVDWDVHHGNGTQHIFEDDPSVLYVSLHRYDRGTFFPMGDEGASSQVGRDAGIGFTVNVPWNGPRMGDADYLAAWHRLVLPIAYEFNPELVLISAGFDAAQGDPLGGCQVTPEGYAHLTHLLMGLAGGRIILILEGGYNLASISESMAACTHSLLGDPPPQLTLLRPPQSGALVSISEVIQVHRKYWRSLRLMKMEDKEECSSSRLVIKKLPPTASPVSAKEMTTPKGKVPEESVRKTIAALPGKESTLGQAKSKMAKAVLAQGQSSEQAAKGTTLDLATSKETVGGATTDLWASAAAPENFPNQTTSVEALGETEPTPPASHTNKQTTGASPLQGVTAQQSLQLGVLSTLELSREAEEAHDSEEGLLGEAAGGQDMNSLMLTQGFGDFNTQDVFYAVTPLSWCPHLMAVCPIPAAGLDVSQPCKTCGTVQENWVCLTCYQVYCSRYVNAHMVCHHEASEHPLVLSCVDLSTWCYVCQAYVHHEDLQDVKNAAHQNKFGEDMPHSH

Sequence of Histone deacetylase 1 (Homo sapiens) (Q13547 whole entry): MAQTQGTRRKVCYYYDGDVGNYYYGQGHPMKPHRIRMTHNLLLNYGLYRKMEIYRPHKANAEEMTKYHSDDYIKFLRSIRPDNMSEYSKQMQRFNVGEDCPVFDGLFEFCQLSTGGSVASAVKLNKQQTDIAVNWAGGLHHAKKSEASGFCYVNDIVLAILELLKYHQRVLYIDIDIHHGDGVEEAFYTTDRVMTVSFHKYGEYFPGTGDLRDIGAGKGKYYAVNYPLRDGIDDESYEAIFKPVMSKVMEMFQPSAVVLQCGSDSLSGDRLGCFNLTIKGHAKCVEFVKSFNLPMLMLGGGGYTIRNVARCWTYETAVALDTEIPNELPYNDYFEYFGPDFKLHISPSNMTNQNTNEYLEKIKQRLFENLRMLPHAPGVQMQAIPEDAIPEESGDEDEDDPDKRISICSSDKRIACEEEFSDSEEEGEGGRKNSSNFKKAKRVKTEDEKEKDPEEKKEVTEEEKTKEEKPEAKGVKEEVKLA

CCC(=O)CC(CC/C=C/C=C/CC/C=C\[C@@H]1CSC([C@@H]2C[C@@H]2C)=N1)OC (some centres undefined)
Activity (P388): Active
inhibition [1]: inactive
inhibition [2]: inactive
inhibition [3]: inactive
